Legend:
Format in all cases: in vivo
Amaranthus retroflexus = experiment: Post-emergence herbicidal activity against AMARE; conditions: dosage 320 g/ha, rated about 3 weeks after treatment; for pest or weed control at 320 g/ha: Amaranthus retroflexus, 504 h
Outline: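 Greenhouse pots of sandy loam; plants sprayed at one-leaf stage, 2 to 3 weeks after sowing, with WP or EC formulations in water plus 0.5% additive at 600 l/ha. Activity rated visually after about 3 weeks against untreated controls (100% = plants dead, 0% = like control).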

Stellaria media [1] = experiment: Post-emergence herbicidal activity against STEME; conditions: dosage 320 g/ha, rated about 3 weeks after treatment; for pest or weed control at 320 g/ha: Stellaria media, 504 h
Outline: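 Greenhouse plants treated at one-leaf stage, 2–3 weeks after sowing, by spraying WP or EC formulations with 0.5% additive at 600 l/ha water. Visual rating about 3 weeks later versus untreated controls (100% = plants dead, 0% = like controls).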

Lolium rigidum = experiment: Post-emergence herbicidal activity against LOLRI; conditions: dosage 320 g/ha, rated about 3 weeks after treatment
Outline: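 Greenhouse-grown plants sprayed post-emergence at the one-leaf stage, 2 to 3 weeks after sowing, with WP or EC formulations plus 0.5% additive at 600 l/ha water. Activity rated visually after about 3 weeks versus untreated controls (100% = plants dead, 0% = like control).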

Stellaria media [2] = experiment: Pre-emergence herbicidal activity against STEME; conditions: dosage 80 g/ha; for pest or weed control at 80 g/ha: Stellaria media, 504 h
Excerpt: 1. Pre-Emergence Herbicidal Action and Crop Plant Compatibility Seeds of monocotyledonous and dicotyledonous weed plants and crop plants are placed in plastic or wood fiber pots and covered with soil. The compounds of the invention, formulated in the form of wettable powders (WP) or as emulsion concentrates (EC), are then applied onto the surface of the covering soil as aqueous suspension or emulsion with addition of 0.5% additive at a water application rate of 600 l/ha (converted). After the treatment, the pots are placed in a greenhouse and kept under good growth conditions for the trial plants. After about 3 weeks, the effect of the preparations is scored visually in comparison with untreated controls as percentages. For example, 100% activity=the plants have died, 0% activity=like control plants. STEME: Stellaria media VERPE: Veronica persica

Echinochloa crus-galli = experiment: Post-emergence herbicidal activity against ECHCG; conditions: dosage 320 g/ha, rated about 3 weeks after treatment; for pest or weed control at 320 g/ha: Echinochloa crus-galli, 504 h
Outline: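 Greenhouse pot plants sprayed post-emergence at one-leaf stage (2-3 weeks after sowing) with WP or EC formulations, 0.5% additive, 600 l/ha water. Visual rating about 3 weeks later versus untreated controls: 100% = plants dead, 0% = like control.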

[3] = Post-emergence treatment, summary over harmful plants; conditions: 504 h, application rate of 0.32 kg of active substance or less per hectare, read-out: herbicidal action, post-emergence treatment (very good herbicidal activity)
Outline: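 Greenhouse-grown weeds and crops were sprayed at the one-leaf stage (2–3 weeks post-sowing) with WP or EC formulations plus 0.5% additive at 600 l/ha water. About 3 weeks later, activity was visually rated against untreated controls (100% = dead plants, 0% = like control).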

SMILES: CC1(C(=O)NC2COC(C(=O)O)C2)CC(c2cc(F)cc(F)c2)=NO1 (mixture of isomers) [I-41]
- Post-emergence herbicidal activity against AMARE in % (Amaranthus retroflexus): 100%
- Post-emergence herbicidal activity against STEME in % (Stellaria media [1]): 90%
- Post-emergence herbicidal activity against LOLRI in % (Lolium rigidum): 100%
- Pre-emergence herbicidal activity against STEME in % (Stellaria media [2]): 100%
- Post-emergence herbicidal activity against ECHCG in % (Echinochloa crus-galli): 100%

SMILES: CC(C)(C)OC(=O)C1CC(NC(=O)C2(C)CC(c3cc(F)cc(F)c3)=NO2)CO1 (mixture of isomers) [I-42]
- Post-emergence herbicidal activity against AMARE in % (Amaranthus retroflexus): 80%
- Post-emergence herbicidal activity against STEME in % (Stellaria media [1]): 90%
- Post-emergence herbicidal activity against LOLRI in % (Lolium rigidum): 100%
- Pre-emergence herbicidal activity against STEME in % (Stellaria media [2]): 100%
- Post-emergence herbicidal activity against ECHCG in % (Echinochloa crus-galli): 100%

SMILES: CCOC(=O)C1CC(NC(=O)C2(C)CC(c3cc(F)cc(F)c3)=NO2)CO1 (mixture of isomers) [I-43]
- Post-emergence herbicidal activity against AMARE in % (Amaranthus retroflexus): 80%
- Post-emergence herbicidal activity against STEME in % (Stellaria media [1]): 100%
- Post-emergence herbicidal activity against LOLRI in % (Lolium rigidum): 100%
- Pre-emergence herbicidal activity against STEME in % (Stellaria media [2]): 100%
- Post-emergence herbicidal activity against ECHCG in % (Echinochloa crus-galli): 100%

SMILES: CC1(C(=O)NC2COC(C(=O)OCc3ccccc3)C2)CC(c2cc(F)cc(F)c2)=NO1 (mixture of isomers) [I-45]
- Post-emergence herbicidal activity against AMARE in % (Amaranthus retroflexus): 80%
- Post-emergence herbicidal activity against STEME in % (Stellaria media [1]): 90%
- Post-emergence herbicidal activity against LOLRI in % (Lolium rigidum): 100%
- Pre-emergence herbicidal activity against STEME in % (Stellaria media [2]): 100%
- Post-emergence herbicidal activity against ECHCG in % (Echinochloa crus-galli): 100%

SMILES: CCOC(=O)[C@H]1C[C@@H](NC(=O)C2(C)CC(c3cccc(F)c3)=NO2)CO1 (mixture of isomers) [I-30, ethyl cis-4-[[(5RS)-3-(3-fluorophenyl)-5-methyl-4H-isoxazole-5-carbonyl]amino]tetrahydrofuran-2-carboxylate]
- pest or weed control at 320 g/ha [3]: 80 to 100%
- pest or weed control at 320 g/ha (Stellaria media [1]): 90%
- pest or weed control at 320 g/ha (Lolium rigidum; Lolium rigidum, 504 h): 100%
- pest or weed control at 80 g/ha (Stellaria media [2]): 90%
- pest or weed control at 320 g/ha (Echinochloa crus-galli): 80%

SMILES: C=CC1(C(=O)N[C@H]2CO[C@@H](C(=O)O)C2)CC(c2cc(F)cc(F)c2)=NO1 (relative stereo) [I-21, cis-4-[[3-(3,5-difluorophenyl)-5-vinyl-4H-isoxazole-5-carbonyl]amino]tetrahydrofuran-2-carboxylic acid]
- pest or weed control at 320 g/ha (Amaranthus retroflexus): 100%
- pest or weed control at 320 g/ha [3]: 80 to 100%
- pest or weed control at 320 g/ha (Stellaria media [1]): 80%
- pest or weed control at 80 g/ha (Stellaria media [2]): 100%
- pest or weed control at 320 g/ha (Echinochloa crus-galli): 80%

SMILES: COC(=O)C1COCC1NC(=O)C1(C)CC(c2cc(F)cc(F)c2)=NO1 (stereo not shown) [I-19, methyl 4-[[3-(3,5-difluorophenyl)-5-methyl-4H-isoxazole-5-carbonyl]amino]tetrahydrofuran-3-carboxylate]
- pest or weed control at 320 g/ha (Amaranthus retroflexus): 90%
- pest or weed control at 320 g/ha [3]: 80 to 100%
- pest or weed control at 320 g/ha (Stellaria media [1]): 90%
- pest or weed control at 80 g/ha (Stellaria media [2]): 80%
- pest or weed control at 320 g/ha (Echinochloa crus-galli): 90%

SMILES: C=C[C@]1(C(=O)NC2COCC2C(=O)OC)CC(c2cc(F)cc(F)c2)=NO1 (stereo partly drawn) [I-26, methyl 4-[[(5S)-3-(3,5-difluorophenyl)-5-vinyl-4H-isoxazole-5-carbonyl]amino]tetrahydrofuran-3-carboxylate]
- pest or weed control at 320 g/ha (Amaranthus retroflexus): 80%
- pest or weed control at 320 g/ha [3]: 80 to 100%
- pest or weed control at 320 g/ha (Stellaria media [1]): 90%
- pest or weed control at 80 g/ha (Stellaria media [2]): 100%
- pest or weed control at 320 g/ha (Echinochloa crus-galli): 90%

SMILES: COC(=O)C1COCC1NC(=O)[C@@]1(C)CC(c2cc(F)cc(F)c2)=NO1 (stereo partly drawn) [I-28, methyl 4-[[(5R)-3-(3,5-difluorophenyl)-5-methyl-4H-isoxazole-5-carbonyl]amino]tetrahydrofuran-3-carboxylate]
- pest or weed control at 320 g/ha (Amaranthus retroflexus): 80%
- pest or weed control at 320 g/ha [3]: 80 to 100%
- pest or weed control at 320 g/ha (Stellaria media [1]): 80%
- pest or weed control at 80 g/ha (Stellaria media [2]): 100%
- pest or weed control at 320 g/ha (Echinochloa crus-galli): 80%

SMILES: COC(=O)C1CC(NC(=O)C2(C(C)(F)F)CC(c3cc(F)cc(F)c3)=NO2)CO1 (stereo not shown) [I-49]
- Post-emergence herbicidal activity against STEME in % (Stellaria media [1]): 90%
- Post-emergence herbicidal activity against LOLRI in % (Lolium rigidum): 90%
- Pre-emergence herbicidal activity against STEME in % (Stellaria media [2]): 100%
- Post-emergence herbicidal activity against ECHCG in % (Echinochloa crus-galli): 80%

— patent US11597724B2, “Herbicidally active 3-phenylisoxazoline-5-carboxamides of tetrahydro and dihydrofuran carboxylic acids and esters” (Bayer Aktiengesellschaft, priority 2017, dated 2023)
